For experiment [1], the target named is Bromodomain-containing protein 1 (Homo sapiens) (UniProt O95696). In words: Selectivity interaction (Bromodomain panel (DSF assay)) EUB0000224e BRD1.
Experiment [2] deals with Chromatin remodeling regulator CECR2 (Homo sapiens, UniProt Q9BXF3). Put plainly: Selectivity interaction (Bromodomain panel (DSF assay)) EUB0000224e CECR2. Background: DSF heats the sample and reads unfolding from a dye or from intrinsic fluorescence.
The target in experiment [3] is N-lysine methyltransferase SMYD2 (Homo sapiens, UniProt Q9NRG4). Put plainly: Selectivity interaction (Protein methyltransferase panel (activity assay)) EUB0000211b SMYD2.
For experiment [4], the target named is Histone-lysine N-methyltransferase EHMT1 (Homo sapiens) (UniProt Q9H9B1). In words: Selectivity interaction (Protein methyltransferase panel (activity assay)) EUB0000211b EHMT1.
In experiment [5] the target is Histone-lysine N-methyltransferase KMT5C (Homo sapiens, UniProt Q86Y97). In words: Selectivity interaction (Protein methyltransferase panel (activity assay)) EUB0000211b SUV420H2.
In experiment [6] the target is Histone-lysine N-methyltransferase NSD2 (Homo sapiens) (UniProt O96028). Put plainly: Selectivity interaction (Protein methyltransferase panel (activity assay)) EUB0000211b NSD2.
For experiment [7], the target named is Protein arginine N-methyltransferase 5 (Homo sapiens, UniProt O14744). Put plainly: Selectivity interaction (Protein methyltransferase panel (activity assay)) EUB0000211b PRMT5.
Experiment [8] addresses Protein arginine N-methyltransferase 9 (Homo sapiens) (UniProt Q6P2P2). Put plainly: Selectivity interaction (Protein methyltransferase panel (activity assay)) EUB0000211b PRMT9.
In experiment [9] the target is Histone-lysine N-methyltransferase SETD7 (Homo sapiens) (UniProt Q8WTS6). In words: Selectivity interaction (Protein methyltransferase panel (activity assay)) EUB0000211b SETD7.
In experiment [10] the target is Protein arginine N-methyltransferase 1 (Homo sapiens, UniProt Q99873). Put plainly: Selectivity interaction (Protein methyltransferase panel (activity assay)) EUB0000211b PRMT1.
The target of experiment [11] is Histone-lysine N-methyltransferase EHMT2 (Homo sapiens) (UniProt Q96KQ7). Put plainly: Selectivity interaction (Protein methyltransferase panel (activity assay)) EUB0000211b EHMT2.
The target in experiment [12] is Tudor domain-containing protein 3 (Homo sapiens) (UniProt Q9H7E2). Put plainly: Selectivity interaction (Methyl-Lysine/Arginine panel (DSF assay)) EUB0000211b TDRD3. To be noted: OICR-# does not inhibit the C/EBPa p30-Wdr5 interaction (Western Blot), PMID: #;, Selectivity Remarks In vitro, Selectivity Source Knowledge https://www.thesgc.org/chemical-probes/OICR-9429, S.
Tudor domain-containing protein 3 (Homo sapiens), sequence (Q9H7E2 whole entry, the tested form may be a part): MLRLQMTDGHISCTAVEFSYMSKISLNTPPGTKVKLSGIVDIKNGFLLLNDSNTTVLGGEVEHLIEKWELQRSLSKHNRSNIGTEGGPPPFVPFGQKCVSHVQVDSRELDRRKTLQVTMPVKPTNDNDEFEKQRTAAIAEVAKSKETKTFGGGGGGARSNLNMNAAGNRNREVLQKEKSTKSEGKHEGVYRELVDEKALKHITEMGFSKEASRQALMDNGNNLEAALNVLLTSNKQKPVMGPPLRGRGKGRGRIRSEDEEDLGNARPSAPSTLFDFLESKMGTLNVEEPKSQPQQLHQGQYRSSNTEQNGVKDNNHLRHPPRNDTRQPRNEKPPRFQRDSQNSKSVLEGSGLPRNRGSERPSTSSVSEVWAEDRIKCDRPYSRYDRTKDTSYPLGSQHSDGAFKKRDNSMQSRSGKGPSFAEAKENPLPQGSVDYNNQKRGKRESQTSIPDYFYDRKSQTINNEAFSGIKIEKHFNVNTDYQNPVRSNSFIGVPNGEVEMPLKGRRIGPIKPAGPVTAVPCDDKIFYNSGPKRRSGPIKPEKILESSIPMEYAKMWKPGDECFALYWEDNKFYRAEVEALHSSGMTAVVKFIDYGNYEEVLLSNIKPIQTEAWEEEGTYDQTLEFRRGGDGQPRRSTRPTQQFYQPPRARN

Experiment [13] concerns the target Histone-lysine N-methyltransferase, H3 lysine-36 specific (Homo sapiens) (UniProt Q96L73). Put plainly: Selectivity interaction (Protein methyltransferase panel (activity assay)) EUB0000211b NSD1.
Experiment [14] deals with Protein arginine N-methyltransferase 8 (Homo sapiens, UniProt Q9NR22). Put plainly: Selectivity interaction (Protein methyltransferase panel (activity assay)) EUB0000211b PRMT8.
In experiment [15] the target is Histone-lysine N-methyltransferase SUV39H2 (Homo sapiens, UniProt Q9H5I1). Put plainly: Selectivity interaction (Protein methyltransferase panel (activity assay)) EUB0000211b SUV39H2.
Experiment [16] addresses Histone-lysine N-methyltransferase EZH2 (Homo sapiens, UniProt Q15910). In words: Selectivity interaction (Protein methyltransferase panel (activity assay)) EUB0000211b EZH2.
Experiment [17] concerns the target Protein arginine N-methyltransferase 6 (Homo sapiens, UniProt Q96LA8). In words: Selectivity interaction (Protein methyltransferase panel (activity assay)) EUB0000211b PRMT6.
Experiment [18] addresses Histone-lysine N-methyltransferase KMT5B (Homo sapiens, UniProt Q4FZB7). In words: Selectivity interaction (Protein methyltransferase panel (activity assay)) EUB0000211b SUV420H1.
Experiment [19] has as its target Histone-lysine N-methyltransferase EZH1 (Homo sapiens) (UniProt Q92800). In words: Selectivity interaction (Protein methyltransferase panel (activity assay)) EUB0000211b EZH1.
Experiment [20] has as its target Histone-lysine N-methyltransferase, H3 lysine-79 specific (Homo sapiens, UniProt Q8TEK3). In words: Selectivity interaction (Protein methyltransferase panel (activity assay)) EUB0000211b DOT1L.
Experiment [21] concerns the target Histone-lysine N-methyltransferase NSD3 (Homo sapiens) (UniProt Q9BZ95). Put plainly: Selectivity interaction (Protein methyltransferase panel (activity assay)) EUB0000211b NSD3.
Experiment [22] concerns the target Histone-lysine N-methyltransferase SETDB1 (Homo sapiens, UniProt Q15047). Put plainly: Selectivity interaction (Protein methyltransferase panel (activity assay)) EUB0000211b SETDB1.
In experiment [23] the target is DNA (cytosine-5)-methyltransferase 1 (Homo sapiens, UniProt P26358). Put plainly: Selectivity interaction (Protein methyltransferase panel (activity assay)) EUB0000211b DNMT1.
The target of experiment [24] is N-lysine methyltransferase KMT5A (Homo sapiens) (UniProt Q9NQR1). Put plainly: Selectivity interaction (Protein methyltransferase panel (activity assay)) EUB0000211b SETD8.
Experiment [25] concerns the target Protein arginine N-methyltransferase 3 (Homo sapiens, UniProt O60678). Put plainly: Selectivity interaction (Protein methyltransferase panel (activity assay)) EUB0000211b PRMT3.
Experiment [26] concerns the target Histone-lysine N-methyltransferase SETD2 (Homo sapiens, UniProt Q9BYW2). Put plainly: Selectivity interaction (Methyltransferase panel) EUB0000034d SETD2. The note with it: at 10 µM.
Experiment [27] deals with Polycomb protein EED (Homo sapiens) (UniProt O75530). Put plainly: Selectivity interaction (Reader proteins panel (DSF assay)) EUB0000034d EED.
Polycomb protein EED (Homo sapiens), sequence (O75530 2-441 limits assumed): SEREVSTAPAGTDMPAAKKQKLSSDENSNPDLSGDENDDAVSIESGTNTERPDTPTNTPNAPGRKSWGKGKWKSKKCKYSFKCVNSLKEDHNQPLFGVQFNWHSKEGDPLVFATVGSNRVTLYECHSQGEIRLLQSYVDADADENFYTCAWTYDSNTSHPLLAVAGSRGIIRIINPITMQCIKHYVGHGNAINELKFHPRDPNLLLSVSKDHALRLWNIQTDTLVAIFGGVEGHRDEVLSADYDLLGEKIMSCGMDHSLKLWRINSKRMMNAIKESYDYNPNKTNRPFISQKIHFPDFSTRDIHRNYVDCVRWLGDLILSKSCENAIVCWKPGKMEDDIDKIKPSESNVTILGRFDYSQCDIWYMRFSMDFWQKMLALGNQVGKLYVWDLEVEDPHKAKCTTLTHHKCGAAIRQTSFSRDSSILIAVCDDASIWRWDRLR
The target of experiment [28] is E3 ubiquitin-protein ligase UHRF1 (Homo sapiens) (UniProt Q96T88). Put plainly: Selectivity interaction (Reader proteins panel (DSF assay)) EUB0000034d UHRF1.
Experiment [29] addresses Growth/differentiation factor 2 (Homo sapiens) (UniProt Q9UK05). In words: Selectivity interaction (Reader proteins panel (DSF assay)) EUB0000034d GDF2.
Another experiment deals with Peregrin (Homo sapiens) (UniProt P55201). Put plainly: Selectivity interaction (Reader proteins panel (DSF assay)) EUB0000034d BRPF1.
The target in experiment [30] is Staphylococcal nuclease domain-containing protein 1 (Homo sapiens) (UniProt Q7KZF4). Put plainly: Selectivity interaction (Reader proteins panel (DSF assay)) EUB0000034d SND1.
In experiment [31] the target is AT-rich interactive domain-containing protein 4A (Homo sapiens) (UniProt P29374). Put plainly: Selectivity interaction (Reader proteins panel (DSF assay)) EUB0000034d ARID4A.
Experiment [32] concerns the target WD repeat-containing protein 5 (Homo sapiens) (UniProt P61964). Put plainly: Selectivity interaction (Reader proteins panel (DSF assay)) EUB0000034d WDR5.
Experiment [33] concerns the target RNA-binding protein FXR1 (Homo sapiens) (UniProt P51114). In words: Selectivity interaction (Reader proteins panel (DSF assay)) EUB0000034d FXR1.
Experiment [34] deals with Tudor domain-containing protein 3 (Homo sapiens) (UniProt Q9H7E2). In words: Selectivity interaction (Reader proteins panel (DSF assay)) EUB0000034d TDRD3.

The values that follow come from ChEMBL document CHEMBL5212743, “Selectivity Literature for EUbOPEN Chemogenomics Library wave 3” (2023).

Protein arginine N-methyltransferase 6, sequence (Q96LA8 whole entry, looked up): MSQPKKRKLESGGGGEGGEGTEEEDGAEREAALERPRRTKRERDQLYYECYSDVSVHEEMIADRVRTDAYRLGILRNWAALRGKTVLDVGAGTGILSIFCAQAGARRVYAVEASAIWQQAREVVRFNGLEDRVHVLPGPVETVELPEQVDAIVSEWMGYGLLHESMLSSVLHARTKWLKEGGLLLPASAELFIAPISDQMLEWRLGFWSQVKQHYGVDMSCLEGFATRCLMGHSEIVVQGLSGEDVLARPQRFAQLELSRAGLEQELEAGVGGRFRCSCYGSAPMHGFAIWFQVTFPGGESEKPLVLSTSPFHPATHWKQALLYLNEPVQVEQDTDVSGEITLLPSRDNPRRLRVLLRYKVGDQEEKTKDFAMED
Bromodomain-containing protein 1 (Homo sapiens), sequence (O95696 whole entry): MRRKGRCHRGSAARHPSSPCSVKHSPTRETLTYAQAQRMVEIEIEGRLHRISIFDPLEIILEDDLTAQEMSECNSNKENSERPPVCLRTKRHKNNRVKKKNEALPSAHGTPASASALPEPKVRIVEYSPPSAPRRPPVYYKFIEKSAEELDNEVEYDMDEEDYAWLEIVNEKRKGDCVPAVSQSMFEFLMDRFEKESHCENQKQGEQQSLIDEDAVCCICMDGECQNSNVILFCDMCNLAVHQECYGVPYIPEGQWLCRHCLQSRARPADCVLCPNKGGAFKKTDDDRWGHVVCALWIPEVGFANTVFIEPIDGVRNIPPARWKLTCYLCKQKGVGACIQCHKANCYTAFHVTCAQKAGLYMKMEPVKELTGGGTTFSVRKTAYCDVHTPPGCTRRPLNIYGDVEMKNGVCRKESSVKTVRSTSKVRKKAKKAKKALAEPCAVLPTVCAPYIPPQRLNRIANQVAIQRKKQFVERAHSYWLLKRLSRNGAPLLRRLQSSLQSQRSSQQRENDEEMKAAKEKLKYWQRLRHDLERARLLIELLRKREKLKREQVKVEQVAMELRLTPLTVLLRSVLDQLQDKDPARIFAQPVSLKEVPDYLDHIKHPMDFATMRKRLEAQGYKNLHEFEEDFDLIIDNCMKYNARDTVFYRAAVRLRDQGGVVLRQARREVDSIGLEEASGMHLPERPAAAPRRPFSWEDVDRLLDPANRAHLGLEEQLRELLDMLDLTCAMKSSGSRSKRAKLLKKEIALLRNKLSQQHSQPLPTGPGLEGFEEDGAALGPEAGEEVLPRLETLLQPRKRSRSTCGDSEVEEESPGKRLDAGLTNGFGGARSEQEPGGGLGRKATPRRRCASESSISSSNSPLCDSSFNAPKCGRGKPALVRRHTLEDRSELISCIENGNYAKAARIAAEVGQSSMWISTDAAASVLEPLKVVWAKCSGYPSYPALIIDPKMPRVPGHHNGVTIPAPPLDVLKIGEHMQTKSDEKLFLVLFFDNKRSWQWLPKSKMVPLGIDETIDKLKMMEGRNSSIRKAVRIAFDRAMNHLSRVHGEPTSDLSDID
Chromatin remodeling regulator CECR2, sequence (Q9BXF3 whole entry, looked up): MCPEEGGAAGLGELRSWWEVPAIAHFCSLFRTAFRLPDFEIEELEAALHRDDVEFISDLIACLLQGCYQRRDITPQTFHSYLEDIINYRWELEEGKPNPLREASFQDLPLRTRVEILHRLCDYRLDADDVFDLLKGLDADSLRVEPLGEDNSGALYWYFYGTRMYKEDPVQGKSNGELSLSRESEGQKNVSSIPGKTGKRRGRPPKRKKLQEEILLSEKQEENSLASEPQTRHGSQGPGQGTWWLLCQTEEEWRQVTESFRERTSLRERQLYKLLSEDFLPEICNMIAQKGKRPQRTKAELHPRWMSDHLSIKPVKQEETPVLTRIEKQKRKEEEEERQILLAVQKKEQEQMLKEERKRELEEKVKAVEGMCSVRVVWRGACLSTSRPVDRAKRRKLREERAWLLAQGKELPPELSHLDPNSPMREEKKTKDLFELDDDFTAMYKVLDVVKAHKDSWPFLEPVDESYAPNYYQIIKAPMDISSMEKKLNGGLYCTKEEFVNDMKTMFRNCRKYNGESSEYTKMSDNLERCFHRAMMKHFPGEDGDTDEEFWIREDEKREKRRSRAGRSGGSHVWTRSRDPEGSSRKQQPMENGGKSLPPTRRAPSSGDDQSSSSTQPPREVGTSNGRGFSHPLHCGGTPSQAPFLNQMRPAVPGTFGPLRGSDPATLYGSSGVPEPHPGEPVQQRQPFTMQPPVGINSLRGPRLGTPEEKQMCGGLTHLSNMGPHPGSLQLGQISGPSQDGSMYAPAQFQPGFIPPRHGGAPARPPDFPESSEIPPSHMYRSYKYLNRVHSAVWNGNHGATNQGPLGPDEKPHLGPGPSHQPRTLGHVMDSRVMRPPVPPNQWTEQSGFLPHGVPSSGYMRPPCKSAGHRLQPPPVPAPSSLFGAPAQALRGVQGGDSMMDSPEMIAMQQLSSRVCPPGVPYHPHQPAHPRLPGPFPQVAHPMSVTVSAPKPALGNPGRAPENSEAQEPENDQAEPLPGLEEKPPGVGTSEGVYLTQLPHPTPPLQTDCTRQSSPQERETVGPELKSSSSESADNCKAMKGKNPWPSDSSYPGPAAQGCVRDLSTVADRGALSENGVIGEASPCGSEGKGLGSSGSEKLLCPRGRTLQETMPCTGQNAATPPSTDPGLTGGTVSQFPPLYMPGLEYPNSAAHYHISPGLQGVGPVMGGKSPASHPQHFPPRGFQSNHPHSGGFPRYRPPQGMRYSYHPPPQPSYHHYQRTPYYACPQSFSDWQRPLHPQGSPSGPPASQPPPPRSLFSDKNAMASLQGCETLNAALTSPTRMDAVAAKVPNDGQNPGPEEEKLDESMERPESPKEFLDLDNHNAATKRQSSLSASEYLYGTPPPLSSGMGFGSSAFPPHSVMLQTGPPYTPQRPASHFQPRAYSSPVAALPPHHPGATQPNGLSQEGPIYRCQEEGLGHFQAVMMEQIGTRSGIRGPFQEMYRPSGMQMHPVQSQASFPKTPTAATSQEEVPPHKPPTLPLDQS
Protein arginine N-methyltransferase 9 (Homo sapiens), sequence (Q6P2P2 whole entry): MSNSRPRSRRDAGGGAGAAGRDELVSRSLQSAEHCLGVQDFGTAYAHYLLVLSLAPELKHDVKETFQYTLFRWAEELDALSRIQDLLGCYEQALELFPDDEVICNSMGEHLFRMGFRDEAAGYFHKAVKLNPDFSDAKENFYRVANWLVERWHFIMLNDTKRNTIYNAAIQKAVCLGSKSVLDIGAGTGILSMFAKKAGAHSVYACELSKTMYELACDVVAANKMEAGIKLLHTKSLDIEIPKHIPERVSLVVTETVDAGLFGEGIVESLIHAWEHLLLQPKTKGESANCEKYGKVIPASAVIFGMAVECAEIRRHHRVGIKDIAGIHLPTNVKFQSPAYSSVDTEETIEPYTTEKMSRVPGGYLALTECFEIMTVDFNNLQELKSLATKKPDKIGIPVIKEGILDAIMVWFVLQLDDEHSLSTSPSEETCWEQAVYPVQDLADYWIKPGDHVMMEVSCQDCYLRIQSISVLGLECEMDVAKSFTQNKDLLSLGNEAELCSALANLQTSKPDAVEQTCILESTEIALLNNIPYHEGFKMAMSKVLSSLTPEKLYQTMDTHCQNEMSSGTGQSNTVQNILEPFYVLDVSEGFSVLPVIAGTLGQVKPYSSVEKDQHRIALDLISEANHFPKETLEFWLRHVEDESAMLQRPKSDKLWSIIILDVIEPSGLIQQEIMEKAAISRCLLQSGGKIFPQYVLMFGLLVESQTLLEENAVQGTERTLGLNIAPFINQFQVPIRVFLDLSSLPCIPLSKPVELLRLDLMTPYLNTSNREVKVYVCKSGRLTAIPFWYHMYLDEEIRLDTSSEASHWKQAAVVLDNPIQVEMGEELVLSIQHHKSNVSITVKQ

For the compound `COc1ccccc1C(=O)Nc1cc2c(cc1N1CCCC1)n(C)c(=O)n2C`, the dTm in experiment [1] and in experiment [2] was 2 K throughout.
As to `CN1CCN(c2ccc(-c3cccc(CN4CCOCC4)c3)cc2NC(=O)c2c[nH]c(=O)cc2C(F)(F)F)CC1`, the % activity remaining was above 90% in experiment [3]; above 90% in [4]; above 90% in [5]; above 80% in experiment [6]; above 90% in experiment [7]; above 90% in experiment [8]. For the same compound, the % activity remaining in experiment [9], in [10], in experiment [11], in experiment [13], in experiment [14] and in [15] was above 90% each time. The % activity remaining in experiment [16], in experiment [17], in experiment [18], in [19], in experiment [20] and in [21] was above 90% throughout. For the same compound, the % activity remaining in experiment [22], in experiment [23], in experiment [24] and in [25] was above 90% throughout. In [12], this compound showed a dTm of 1.8 K.
The compound `CC(C)Oc1ccc(-c2c[nH]cc2CN(C)CCN)cc1` had a % activity remaining in [26] of 80%. The dTm (in [27]; in [28]; in experiment [29]; on Peregrin (Homo sapiens); in [30]; in [31]) was below 2 K in each case. The dTm in [32], in experiment [33] and in experiment [34] was below 2 K throughout.
